According to PubChem BioAssay (NCI):
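Interpolation was linear, between the two tested concentrations surrounding the appropriate level; five concentrations were tested over 48 hours in 96-well plates. TGI is the concentration that stops growth completely.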

Key:
Assay in all cases: NCI anticancer screen, dose series, 48 h
[1] = system: DMS 114 small cell lung
[2] = system: KM20L2 colon
[3] = system: HCC-2998 colon
[4] = system: K-562 leukemia
[5] = system: MDA-MB-231 breast
[6] = system: EKVX NSCLC
[7] = system: DU-145 prostate
[8] = system: UACC-62 melanoma
[9] = system: TK-10 renal
[10] = system: HL-60(TB) leukemia
[11] = system: SK-MEL-5 melanoma
[12] = system: A498 renal
[13] = system: HOP-62 NSCLC
[14] = system: M14 melanoma
[15] = system: SNB-75 CNS
[16] = system: UACC-257 melanoma
[17] = system: UO-31 renal
[18] = system: RXF-631 renal
[19] = system: T-47D breast
[20] = system: NCI-H23 lung
[21] = system: SK-OV-3 ovarian
[22] = system: IGROV1 ovarian
[23] = system: NCI-H460 lung
[24] = system: SNB-19 CNS
[25] = system: XF 498 CNS
[26] = system: SK-MEL-28 melanoma
[27] = system: CAKI-1 renal
[28] = system: HOP-92 NSCLC
[29] = system: NCI-H522 lung
[30] = system: A549 NSCLC
[31] = system: OVCAR-4 ovarian
[32] = system: SW-620 colon
[33] = system: NCI/ADR-RES ovarian
[34] = system: HS 578T breast
[35] = system: DMS 273 small cell lung
[36] = system: OVCAR-5 ovarian
[37] = system: U251 CNS
[38] = system: M19-MEL melanoma
[39] = system: MDA-MB-435
[40] = system: MCF7 breast
[41] = system: ACHN renal
[42] = system: 786-0 renal
[43] = system: NCI-H226 lung
[44] = system: MALME-3M melanoma
[45] = system: HOP-18 NSCLC
[46] = system: DLD-1 colon
[47] = system: HCT-116 colon
[48] = system: SF-268 CNS
[49] = system: LOX IMVI melanoma
[50] = system: RPMI-8226 leukemia
[51] = system: CCRF-CEM leukemia
[52] = system: HT29 colon
[53] = system: PC-3 prostate
[54] = system: SK-MEL-2 melanoma
[55] = system: SN12C renal
[56] = system: MOLT-4 leukemia
[57] = system: SF-295 CNS
[58] = system: MDA-N
[59] = system: HCT-15 colon
[60] = system: SNB-78 CNS
[61] = system: KM12 colon
[62] = system: SF-539 CNS
[63] = system: OVCAR-8 ovarian
[64] = system: RXF 393 renal
[65] = system: COLO 205 colon
[66] = system: LXFL 529 NSCLC
[67] = system: OVCAR-3 ovarian
[68] = system: SR leukemia

C/C(N=NC(=S)N1CC2CCC(CC2)C1)=C1\C=CC=CN1O
TGI [1]: 5.4 µM | TGI [2]: > 100 µM | TGI [3]: > 100 µM | TGI [4]: > 46.8 µM | TGI [5]: > 100 µM | TGI [6]: > 65.9 µM | TGI [7]: > 100 µM | TGI [8]: 29.3 µM | TGI [9]: > 100 µM | TGI [10]: 3.54 µM | TGI [11]: 41.1 µM | TGI [12]: > 94.9 µM | TGI [13]: > 100 µM | TGI [14]: 20.3 µM | TGI [15]: 85.9 µM | TGI [16]: 35.2 µM | TGI [17]: 43 µM | TGI [18]: > 100 µM | TGI [19]: 94.8 µM | TGI [20]: > 100 µM | TGI [21]: > 100 µM | TGI [22]: > 100 µM | TGI [23]: 42.7 µM | TGI [24]: > 82.5 µM | TGI [25]: 91.2 µM | TGI [26]: > 100 µM | TGI [27]: > 100 µM | TGI [28]: 54.5 µM | TGI [29]: 80.3 µM | TGI [30]: > 68.8 µM | TGI [31]: > 100 µM | TGI [32]: > 100 µM | TGI [33]: 8.73 µM | TGI [34]: > 100 µM | TGI [35]: 24.2 µM | TGI [36]: > 100 µM | TGI [37]: > 61.4 µM | TGI [38]: 23.3 µM | TGI [39]: > 100 µM | TGI [40]: > 100 µM | TGI [41]: 30.7 µM | TGI [42]: > 100 µM | TGI [43]: 21.7 µM | TGI [44]: > 82.4 µM | TGI [45]: > 100 µM | TGI [46]: > 100 µM | TGI [47]: 30.5 µM | TGI [48]: > 100 µM | TGI [49]: > 50.7 µM | TGI [50]: > 39.2 µM | TGI [51]: 1.29 µM | TGI [52]: > 57.9 µM | TGI [53]: 45.4 µM | TGI [54]: > 100 µM | TGI [55]: > 100 µM | TGI [56]: 6.46 µM | TGI [57]: > 71.5 µM | TGI [58]: > 100 µM | TGI [59]: > 100 µM | TGI [60]: > 100 µM | TGI [61]: > 31.6 µM | TGI [62]: 31 µM | TGI [63]: > 100 µM | TGI [64]: 69.3 µM | TGI [65]: 38.4 µM

O=C1CCC2(c3ccc(Cl)cc3)Nc3cc(Cl)ccc3N12 (stereo unspecified)
TGI [1]: 21 µM | TGI [2]: 28.9 µM | TGI [4]: 14.1 µM | TGI [6]: 29.1 µM | TGI [8]: 21.2 µM | TGI [10]: 12 µM | TGI [11]: 25.2 µM | TGI [12]: 24.6 µM | TGI [13]: 29.2 µM | TGI [14]: 28.7 µM | TGI [15]: 27.7 µM | TGI [16]: 28.7 µM | TGI [17]: 29.2 µM | TGI [18]: 28.9 µM | TGI [20]: 23.2 µM | TGI [21]: 40.1 µM | TGI [66]: 24.6 µM | TGI [22]: 28.7 µM | TGI [24]: 42.6 µM | TGI [25]: 15 µM | TGI [26]: 25.3 µM | TGI [29]: 22.6 µM | TGI [30]: 26.5 µM | TGI [31]: 23.1 µM | TGI [32]: 19.6 µM | TGI [35]: 22.3 µM | TGI [37]: 24.3 µM | TGI [38]: 25.5 µM | TGI [41]: 24 µM | TGI [42]: 21.8 µM | TGI [44]: 24.5 µM | TGI [45]: 14.6 µM | TGI [46]: 20 µM | TGI [47]: 19.5 µM | TGI [48]: 25.8 µM | TGI [49]: 24.5 µM | TGI [50]: > 100 µM | TGI [51]: 10.7 µM | TGI [52]: 25.2 µM | TGI [54]: 23.8 µM | TGI [55]: 28.6 µM | TGI [67]: 22.4 µM | TGI [57]: 21.4 µM | TGI [59]: 25.3 µM | TGI [60]: 43.4 µM | TGI [61]: 24.4 µM | TGI [62]: 7.32 µM | TGI [63]: 20.6 µM | TGI [68]: > 100 µM | TGI [64]: 24.6 µM | TGI [65]: 18 µM
